According to the kinase profiling compilation of Christmann-Franck et al. (2016):

Columns and labels:
Assay in all cases: radiometric filter-binding kinase assay
[1] = system: AKT2 (human), P31751 [S474D]
CAMKK2 (human) = CAMKK2 (human) (UniProt Q96RR4)
CHEK1 (human) = CHEK1 (human) (UniProt O14757)
CLK2 (human) = CLK2 (human) (UniProt P49760)
CSNK1D (human) = CSNK1D (human) (UniProt P48730)
DYRK1A (human) = DYRK1A (human) (UniProt Q13627)
EPHA4 (human) = EPHA4 (human) (UniProt P54764)
HIPK3 (human) = HIPK3 (human) (UniProt Q9H422)
IGF1R (human) = IGF1R (human) (UniProt P08069)
IKBKE (human) = IKBKE (human) (UniProt Q14164)
IRAK4 (human) = IRAK4 (human) (UniProt Q9NWZ3)
MAP3K7 TAB1 (human) = MAP3K7 TAB1 (human) (UniProt Q15750+O43318)
MAPK12 (human) = MAPK12 (human) (UniProt P53778)
MAPK14 (human) = MAPK14 (human) (UniProt Q16539)
MAPK15 (human) = MAPK15 (human) (UniProt Q8TD08)
MAPK3 (human) = MAPK3 (human) (UniProt P27361)
MAPKAPK2 (human) = MAPKAPK2 (human) (UniProt P49137)
MARK1 (human) = MARK1 (human) (UniProt Q9P0L2)
MARK2 (human) = MARK2 (human) (UniProt Q7KZI7)
MST4 (human) = MST4 (human) (UniProt Q9P289)
NEK2 (human) = NEK2 (human) (UniProt P51955)
NEK6 (human) = NEK6 (human) (UniProt Q9HC98)
[2] = system: PAK2 (human), Q13177 [T402E]
PAK4 (human) = PAK4 (human) (UniProt O96013)
PAK6 (human) = PAK6 (human) (UniProt Q9NQU5)
PAK7 (human) = PAK7 (human) (UniProt Q9P286)
PIM2 (human) = PIM2 (human) (UniProt Q9P1W9)
PIM3 (human) = PIM3 (human) (UniProt Q86V86)
PKN2 (human) = PKN2 (human) (UniProt Q16513)
PLK1 (human) = PLK1 (human) (UniProt P53350)
RIPK2 (human) = RIPK2 (human) (UniProt O43353)
RPS6KA3 KD1 KD2 (human) = RPS6KA3 KD1 KD2 (human) (UniProt P51812)
RPS6KA5 KD1 KD2 (human) = RPS6KA5 KD1 KD2 (human) (UniProt O75582)
[3] = system: SGK1 (human), O00141 [S422D]
SRPK1 (human) = SRPK1 (human) (UniProt Q96SB4)

Sequence of HIPK3 (human) (Q9H422 whole entry, looked up): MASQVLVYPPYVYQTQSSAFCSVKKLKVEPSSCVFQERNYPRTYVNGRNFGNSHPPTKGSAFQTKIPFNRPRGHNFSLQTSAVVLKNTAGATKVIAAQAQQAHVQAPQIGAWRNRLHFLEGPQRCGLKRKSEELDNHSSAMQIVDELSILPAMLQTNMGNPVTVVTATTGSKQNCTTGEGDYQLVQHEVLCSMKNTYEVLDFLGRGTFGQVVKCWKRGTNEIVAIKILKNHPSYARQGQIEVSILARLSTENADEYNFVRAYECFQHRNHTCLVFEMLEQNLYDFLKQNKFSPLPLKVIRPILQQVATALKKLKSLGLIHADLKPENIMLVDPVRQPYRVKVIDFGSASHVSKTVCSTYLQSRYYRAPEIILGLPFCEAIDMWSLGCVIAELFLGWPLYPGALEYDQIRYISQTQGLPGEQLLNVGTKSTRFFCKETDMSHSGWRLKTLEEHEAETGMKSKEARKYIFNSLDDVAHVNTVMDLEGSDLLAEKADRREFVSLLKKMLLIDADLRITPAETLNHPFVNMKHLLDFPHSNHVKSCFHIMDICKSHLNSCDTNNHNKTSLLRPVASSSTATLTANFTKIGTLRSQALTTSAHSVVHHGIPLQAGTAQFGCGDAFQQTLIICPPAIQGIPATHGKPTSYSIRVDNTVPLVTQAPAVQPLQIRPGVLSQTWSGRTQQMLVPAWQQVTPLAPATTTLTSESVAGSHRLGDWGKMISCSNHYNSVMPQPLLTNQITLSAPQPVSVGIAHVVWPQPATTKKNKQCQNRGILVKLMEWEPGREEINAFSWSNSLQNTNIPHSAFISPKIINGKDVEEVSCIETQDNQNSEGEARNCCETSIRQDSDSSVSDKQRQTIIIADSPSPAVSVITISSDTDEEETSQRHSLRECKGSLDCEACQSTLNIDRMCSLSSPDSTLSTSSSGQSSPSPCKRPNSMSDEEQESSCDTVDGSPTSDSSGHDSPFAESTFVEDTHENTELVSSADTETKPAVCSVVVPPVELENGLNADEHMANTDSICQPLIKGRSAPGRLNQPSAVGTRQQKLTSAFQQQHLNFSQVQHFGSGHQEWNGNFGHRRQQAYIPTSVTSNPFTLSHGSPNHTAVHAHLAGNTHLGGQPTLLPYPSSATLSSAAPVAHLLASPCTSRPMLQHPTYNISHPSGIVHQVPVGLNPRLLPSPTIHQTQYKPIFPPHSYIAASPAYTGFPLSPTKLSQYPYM
Sequence of PAK2 (human), Q13177 [T402E] (Q13177 whole entry T402E, looked up): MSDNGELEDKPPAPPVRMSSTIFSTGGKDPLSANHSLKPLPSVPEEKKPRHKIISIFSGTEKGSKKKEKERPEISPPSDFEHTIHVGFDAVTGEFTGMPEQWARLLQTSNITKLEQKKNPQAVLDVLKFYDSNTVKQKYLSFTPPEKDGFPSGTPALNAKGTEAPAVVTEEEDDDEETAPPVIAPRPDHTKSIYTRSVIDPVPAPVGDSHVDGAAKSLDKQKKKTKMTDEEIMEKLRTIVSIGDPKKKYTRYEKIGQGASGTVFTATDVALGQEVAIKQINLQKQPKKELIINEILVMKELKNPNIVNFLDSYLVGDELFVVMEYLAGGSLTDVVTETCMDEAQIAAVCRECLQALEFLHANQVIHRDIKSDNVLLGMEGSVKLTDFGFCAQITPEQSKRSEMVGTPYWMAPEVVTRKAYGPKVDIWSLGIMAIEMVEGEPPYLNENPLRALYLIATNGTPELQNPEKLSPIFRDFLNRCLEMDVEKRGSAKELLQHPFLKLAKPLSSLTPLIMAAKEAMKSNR
Sequence of MAP3K7 TAB1 (human) (O43318 whole entry, looked up): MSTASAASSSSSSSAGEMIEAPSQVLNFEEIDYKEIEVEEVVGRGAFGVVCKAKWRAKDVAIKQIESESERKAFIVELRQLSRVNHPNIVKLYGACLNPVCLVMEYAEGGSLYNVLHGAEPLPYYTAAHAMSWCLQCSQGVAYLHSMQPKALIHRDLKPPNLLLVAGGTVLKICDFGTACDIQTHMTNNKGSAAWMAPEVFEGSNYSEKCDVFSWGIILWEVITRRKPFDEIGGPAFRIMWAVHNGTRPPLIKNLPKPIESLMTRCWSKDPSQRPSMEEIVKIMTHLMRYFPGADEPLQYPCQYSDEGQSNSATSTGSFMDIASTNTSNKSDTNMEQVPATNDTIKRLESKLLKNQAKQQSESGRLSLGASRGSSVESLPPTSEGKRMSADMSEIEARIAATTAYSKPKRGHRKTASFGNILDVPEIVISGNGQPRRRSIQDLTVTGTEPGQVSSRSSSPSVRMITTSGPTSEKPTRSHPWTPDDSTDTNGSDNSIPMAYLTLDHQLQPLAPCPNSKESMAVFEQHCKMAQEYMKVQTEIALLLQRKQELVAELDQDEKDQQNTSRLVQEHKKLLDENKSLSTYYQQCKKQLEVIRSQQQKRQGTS
Sequence of MAP3K7 TAB1 (human) (Q15750 whole entry, looked up): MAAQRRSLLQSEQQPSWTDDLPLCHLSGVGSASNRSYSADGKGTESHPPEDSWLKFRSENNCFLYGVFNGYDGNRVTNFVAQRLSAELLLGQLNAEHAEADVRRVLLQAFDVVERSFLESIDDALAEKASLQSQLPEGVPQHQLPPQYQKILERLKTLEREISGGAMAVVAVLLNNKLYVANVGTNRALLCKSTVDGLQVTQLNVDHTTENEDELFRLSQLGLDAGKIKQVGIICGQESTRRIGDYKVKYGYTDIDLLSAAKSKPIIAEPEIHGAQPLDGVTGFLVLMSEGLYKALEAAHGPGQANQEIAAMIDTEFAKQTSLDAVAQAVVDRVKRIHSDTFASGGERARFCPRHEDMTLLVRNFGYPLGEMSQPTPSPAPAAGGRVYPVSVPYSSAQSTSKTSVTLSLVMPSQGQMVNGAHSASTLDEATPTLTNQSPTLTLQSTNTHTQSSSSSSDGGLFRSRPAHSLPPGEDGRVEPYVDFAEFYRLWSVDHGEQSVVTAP
Sequence of PIM2 (human) (Q9P1W9 whole entry, looked up): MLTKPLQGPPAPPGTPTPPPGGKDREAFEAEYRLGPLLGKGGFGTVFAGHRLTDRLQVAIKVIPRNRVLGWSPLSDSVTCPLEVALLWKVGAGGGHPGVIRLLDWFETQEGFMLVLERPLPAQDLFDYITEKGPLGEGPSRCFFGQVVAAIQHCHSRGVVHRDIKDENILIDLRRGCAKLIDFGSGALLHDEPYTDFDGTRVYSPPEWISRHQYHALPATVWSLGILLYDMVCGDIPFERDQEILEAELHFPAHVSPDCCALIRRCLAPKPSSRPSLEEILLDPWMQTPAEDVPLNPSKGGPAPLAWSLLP
Sequence of CLK2 (human) (P49760 whole entry, looked up): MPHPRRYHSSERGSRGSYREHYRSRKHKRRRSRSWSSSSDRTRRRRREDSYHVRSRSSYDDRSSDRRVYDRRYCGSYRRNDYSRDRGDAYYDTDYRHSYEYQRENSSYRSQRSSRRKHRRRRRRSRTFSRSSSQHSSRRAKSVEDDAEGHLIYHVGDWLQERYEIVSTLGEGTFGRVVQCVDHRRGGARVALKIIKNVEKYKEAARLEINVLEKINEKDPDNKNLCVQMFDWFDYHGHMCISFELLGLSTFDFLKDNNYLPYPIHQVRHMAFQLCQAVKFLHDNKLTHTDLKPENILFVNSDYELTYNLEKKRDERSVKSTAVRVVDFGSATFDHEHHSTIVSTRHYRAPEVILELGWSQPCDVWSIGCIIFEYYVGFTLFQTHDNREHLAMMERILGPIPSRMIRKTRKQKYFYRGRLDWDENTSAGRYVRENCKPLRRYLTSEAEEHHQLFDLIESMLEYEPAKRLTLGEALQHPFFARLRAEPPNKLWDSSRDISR
Sequence of NEK2 (human) (P51955 whole entry, looked up): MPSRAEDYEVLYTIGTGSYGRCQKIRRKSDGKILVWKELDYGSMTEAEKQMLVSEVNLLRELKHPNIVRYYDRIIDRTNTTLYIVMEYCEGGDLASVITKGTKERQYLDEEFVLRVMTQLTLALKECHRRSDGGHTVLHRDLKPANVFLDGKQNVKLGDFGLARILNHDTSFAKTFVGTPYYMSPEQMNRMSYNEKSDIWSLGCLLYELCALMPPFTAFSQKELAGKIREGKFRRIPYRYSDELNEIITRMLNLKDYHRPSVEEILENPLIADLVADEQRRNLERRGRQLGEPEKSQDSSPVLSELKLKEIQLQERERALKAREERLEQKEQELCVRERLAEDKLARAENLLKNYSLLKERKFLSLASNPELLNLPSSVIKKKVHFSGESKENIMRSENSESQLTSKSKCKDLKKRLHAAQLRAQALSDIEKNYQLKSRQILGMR
Sequence of NEK6 (human) (Q9HC98 whole entry, looked up): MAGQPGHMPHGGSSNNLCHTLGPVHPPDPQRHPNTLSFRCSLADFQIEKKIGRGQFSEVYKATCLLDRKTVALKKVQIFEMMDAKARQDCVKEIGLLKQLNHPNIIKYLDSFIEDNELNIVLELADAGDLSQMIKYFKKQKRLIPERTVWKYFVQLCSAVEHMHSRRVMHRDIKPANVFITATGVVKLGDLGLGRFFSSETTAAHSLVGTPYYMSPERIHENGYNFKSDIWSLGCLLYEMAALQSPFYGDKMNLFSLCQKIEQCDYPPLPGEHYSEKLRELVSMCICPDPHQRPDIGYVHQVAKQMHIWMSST
Sequence of AKT2 (human), P31751 [S474D] (P31751 whole entry S474D, looked up): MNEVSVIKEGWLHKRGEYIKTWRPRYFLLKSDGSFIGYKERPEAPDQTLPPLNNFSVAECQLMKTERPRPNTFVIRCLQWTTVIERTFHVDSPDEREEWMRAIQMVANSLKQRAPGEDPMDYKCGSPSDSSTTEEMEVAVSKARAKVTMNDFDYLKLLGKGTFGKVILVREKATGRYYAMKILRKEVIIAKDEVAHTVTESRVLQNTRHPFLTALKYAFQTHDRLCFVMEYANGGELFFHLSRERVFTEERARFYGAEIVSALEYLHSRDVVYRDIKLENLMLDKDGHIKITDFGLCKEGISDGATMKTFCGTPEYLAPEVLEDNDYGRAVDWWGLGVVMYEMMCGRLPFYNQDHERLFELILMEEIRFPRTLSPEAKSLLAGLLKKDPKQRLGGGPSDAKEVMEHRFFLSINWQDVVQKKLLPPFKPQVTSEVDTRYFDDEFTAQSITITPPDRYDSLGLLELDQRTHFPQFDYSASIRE

O=C(NOCC(O)CO)c1ccc(F)c(F)c1Nc1ccc(I)cc1Cl (stereo unspecified)
residual activity ([1]; compound 1.0 µM): 97% | residual activity ([1]; compound 10.0 µM): 90% | residual activity (CAMKK2 (human); compound 1.0 µM): 108% | residual activity (CAMKK2 (human); compound 10.0 µM): 103% | residual activity (CHEK1 (human); compound 1.0 µM): 116% | residual activity (CHEK1 (human); compound 10.0 µM): 119% | residual activity (CLK2 (human); compound 1.0 µM): 94% | residual activity (CLK2 (human); compound 10.0 µM): 91% | residual activity (CSNK1D (human); compound 1.0 µM): 96% | residual activity (CSNK1D (human); compound 10.0 µM): 97% | residual activity (DYRK1A (human); compound 1.0 µM): 91% | residual activity (DYRK1A (human); compound 10.0 µM): 85% | residual activity (EPHA4 (human); compound 1.0 µM): 97% | residual activity (EPHA4 (human); compound 10.0 µM): 100% | residual activity (HIPK3 (human); compound 1.0 µM): 90% | residual activity (HIPK3 (human); compound 10.0 µM): 101% | residual activity (IGF1R (human); compound 1.0 µM): 76% | residual activity (IGF1R (human); compound 10.0 µM): 98% | residual activity (IKBKE (human); compound 1.0 µM): 102% | residual activity (IKBKE (human); compound 10.0 µM): 103% | residual activity (IRAK4 (human); compound 1.0 µM): 77% | residual activity (IRAK4 (human); compound 10.0 µM): 91% | residual activity (MAP3K7 TAB1 (human); compound 1.0 µM): 91% | residual activity (MAP3K7 TAB1 (human); compound 10.0 µM): 92% | residual activity (MAPK12 (human); compound 1.0 µM): 80% | residual activity (MAPK12 (human); compound 10.0 µM): 96% | residual activity (MAPK14 (human); compound 1.0 µM): 102% | residual activity (MAPK14 (human); compound 10.0 µM): 97% | residual activity (MAPK15 (human); compound 1.0 µM): 95% | residual activity (MAPK15 (human); compound 10.0 µM): 98% | residual activity (MAPK3 (human); compound 1.0 µM): 100% | residual activity (MAPK3 (human); compound 10.0 µM): 101% | residual activity (MAPKAPK2 (human); compound 1.0 µM): 104% | residual activity (MAPKAPK2 (human); compound 10.0 µM): 102% | residual activity (MARK1 (human); compound 1.0 µM): 77% | residual activity (MARK1 (human); compound 10.0 µM): 71% | residual activity (MARK2 (human); compound 1.0 µM): 101% | residual activity (MARK2 (human); compound 10.0 µM): 101% | residual activity (MST4 (human); compound 1.0 µM): 107% | residual activity (MST4 (human); compound 10.0 µM): 94% | residual activity (NEK2 (human); compound 1.0 µM): 98% | residual activity (NEK2 (human); compound 10.0 µM): 94% | residual activity (NEK6 (human); compound 1.0 µM): 101% | residual activity (NEK6 (human); compound 10.0 µM): 103% | residual activity ([2]; compound 1.0 µM): 95% | residual activity ([2]; compound 10.0 µM): 80% | residual activity (PAK4 (human); compound 1.0 µM): 98% | residual activity (PAK4 (human); compound 10.0 µM): 77% | residual activity (PAK6 (human); compound 10.0 µM): 103% | residual activity (PAK7 (human); compound 1.0 µM): 102% | residual activity (PAK7 (human); compound 10.0 µM): 86% | residual activity (PIM2 (human); compound 1.0 µM): 91% | residual activity (PIM2 (human); compound 10.0 µM): 93% | residual activity (PIM3 (human); compound 1.0 µM): 94% | residual activity (PIM3 (human); compound 10.0 µM): 65% | residual activity (PKN2 (human); compound 1.0 µM): 70% | residual activity (PKN2 (human); compound 10.0 µM): 79% | residual activity (PLK1 (human); compound 1.0 µM): 97% | residual activity (PLK1 (human); compound 10.0 µM): 93% | residual activity (RIPK2 (human); compound 1.0 µM): 86% | residual activity (RIPK2 (human); compound 10.0 µM): 84% | residual activity (RPS6KA3 KD1 KD2 (human); compound 1.0 µM): 98% | residual activity (RPS6KA3 KD1 KD2 (human); compound 10.0 µM): 89% | residual activity (RPS6KA5 KD1 KD2 (human); compound 1.0 µM): 98% | residual activity (RPS6KA5 KD1 KD2 (human); compound 10.0 µM): 96% | residual activity ([3]; compound 1.0 µM): 71% | residual activity ([3]; compound 10.0 µM): 111% | residual activity (SRPK1 (human); compound 1.0 µM): 95% | residual activity (SRPK1 (human); compound 10.0 µM): 86%

CC(C)(C#N)c1ccc(N2C(=O)OCc3cnc4ccc(-c5cnc6ccccc6c5)cc4c32)cc1
residual activity ([1]; compound 10.0 µM): 100% | residual activity (CAMKK2 (human); compound 1.0 µM): 69% | residual activity (CAMKK2 (human); compound 10.0 µM): 59% | residual activity (CHEK1 (human); compound 1.0 µM): 81% | residual activity (CHEK1 (human); compound 10.0 µM): 100% | residual activity (CLK2 (human); compound 1.0 µM): 75% | residual activity (CLK2 (human); compound 10.0 µM): 91% | residual activity (CSNK1D (human); compound 1.0 µM): 92% | residual activity (CSNK1D (human); compound 10.0 µM): 95% | residual activity (DYRK1A (human); compound 1.0 µM): 89% | residual activity (DYRK1A (human); compound 10.0 µM): 83% | residual activity (EPHA4 (human); compound 1.0 µM): 89% | residual activity (EPHA4 (human); compound 10.0 µM): 89% | residual activity (HIPK3 (human); compound 1.0 µM): 96% | residual activity (HIPK3 (human); compound 10.0 µM): 94% | residual activity (IGF1R (human); compound 1.0 µM): 89% | residual activity (IGF1R (human); compound 10.0 µM): 67% | residual activity (IKBKE (human); compound 1.0 µM): 111% | residual activity (IKBKE (human); compound 10.0 µM): 97% | residual activity (IRAK4 (human); compound 1.0 µM): 90% | residual activity (IRAK4 (human); compound 10.0 µM): 89% | residual activity (MAP3K7 TAB1 (human); compound 1.0 µM): 64% | residual activity (MAP3K7 TAB1 (human); compound 10.0 µM): 78% | residual activity (MAPK12 (human); compound 1.0 µM): 88% | residual activity (MAPK12 (human); compound 10.0 µM): 100% | residual activity (MAPK14 (human); compound 1.0 µM): 93% | residual activity (MAPK14 (human); compound 10.0 µM): 134% | residual activity (MAPK15 (human); compound 1.0 µM): 73% | residual activity (MAPK15 (human); compound 10.0 µM): 67% | residual activity (MAPK3 (human); compound 1.0 µM): 85% | residual activity (MAPK3 (human); compound 10.0 µM): 83% | residual activity (MAPKAPK2 (human); compound 1.0 µM): 115% | residual activity (MARK1 (human); compound 1.0 µM): 96% | residual activity (MARK1 (human); compound 10.0 µM): 114% | residual activity (MARK2 (human); compound 1.0 µM): 101% | residual activity (MARK2 (human); compound 10.0 µM): 95% | residual activity (MST4 (human); compound 1.0 µM): 93% | residual activity (MST4 (human); compound 10.0 µM): 83% | residual activity (NEK2 (human); compound 1.0 µM): 108% | residual activity (NEK2 (human); compound 10.0 µM): 103% | residual activity (NEK6 (human); compound 1.0 µM): 83% | residual activity (NEK6 (human); compound 10.0 µM): 40% | residual activity ([2]; compound 1.0 µM): 95% | residual activity ([2]; compound 10.0 µM): 107% | residual activity (PAK4 (human); compound 1.0 µM): 94% | residual activity (PAK6 (human); compound 1.0 µM): 98% | residual activity (PAK6 (human); compound 10.0 µM): 110% | residual activity (PAK7 (human); compound 1.0 µM): 99% | residual activity (PAK7 (human); compound 10.0 µM): 80% | residual activity (PIM2 (human); compound 1.0 µM): 91% | residual activity (PIM2 (human); compound 10.0 µM): 96% | residual activity (PIM3 (human); compound 1.0 µM): 67% | residual activity (PIM3 (human); compound 10.0 µM): 55% | residual activity (PKN2 (human); compound 1.0 µM): 90% | residual activity (PKN2 (human); compound 10.0 µM): 84% | residual activity (PLK1 (human); compound 1.0 µM): 93% | residual activity (PLK1 (human); compound 10.0 µM): 87% | residual activity (RIPK2 (human); compound 1.0 µM): 57% | residual activity (RIPK2 (human); compound 10.0 µM): 38% | residual activity (RPS6KA3 KD1 KD2 (human); compound 1.0 µM): 89% | residual activity (RPS6KA3 KD1 KD2 (human); compound 10.0 µM): 100% | residual activity (RPS6KA5 KD1 KD2 (human); compound 1.0 µM): 74% | residual activity (RPS6KA5 KD1 KD2 (human); compound 10.0 µM): 53% | residual activity ([3]; compound 1.0 µM): 96% | residual activity ([3]; compound 10.0 µM): 82% | residual activity (SRPK1 (human); compound 1.0 µM): 90% | residual activity (SRPK1 (human); compound 10.0 µM): 89%
